Measured values from patent US20240058268A1, “METHODS OF TREATING SKIN DISORDERS” (priority 2021, published 2024).

Experiments:
[1] = system: acne papule biopsies, gene sets; experiment: Gene set enrichment analysis (FGSEA, hallmark and reactome gene sets); assay type: in vivo, human; details: inflammatory response, TNFA signaling via NF-kB, neutrophil degranulation, chemokines and receptors; collagen degradation, extracellular matrix degradation/organization
Experimental: Functional and network analysis were generated with the Ingenuity Pathway Analysis software (QIAGEN® Inc., qiagenbioinformatics.com/products/ingenuity-pathway-analysis), and with Open Targets (opentargets.org/). IPA was used to identify canonical pathways, diseases and functions, and gene networks related to differentially expressed genes in acne lesions and post-lesional skin after treatment with trifarotene or vehicle. In addition, gene set enrichment analysis was performed with the R package FGSEA (version 1.12.0) using the hallmark and reactome gene sets.

[2] = system: acne papule biopsies of subjects with moderate inflammatory acne of the back; experiment: Large scale gene expression profiling of skin biopsies (Affymetrix U133 Plus 2.0); assay type: in vivo, human
Experimental: Subjects with moderate inflammatory acne of the back were treated with a 0.005% trifarotene or vehicle cream on dedicated back areas for 27 days, and 4 biopsies were collected on each subject (non-involved skin, acne papule, Trifarotene and vehicle treated site). Large scale gene expression profiling of the biopsies was performed using Affymetrix technology, and treatment specific gene expression profiles were generated using statistical modeling. Clinical investigations were conducted in accordance with the Declaration of Helsinki principles, and the ICH Guideline for Good Clinical Practice. The clinical study received approval from the ethics committee of Brest, France (reference CPP Quest 6-755). This was a post-hoc analysis of data collected from 9 patients aged 18-35 with acne vulgaris (EUDRACT No. 2012-001943-36). In the 4-week open-label clinical study, subjects received once-daily applications of trifarotene 0.005% cream and vehicle cream on the back. Each patient had four biopsies performed, 1 from skin without visible acne lesion (non-involved skin) and three at the site of acne papule, with the following timing: one prior to treatment (day 0), one after vehicle treatment (day 27), and one after trifarotene treatment (day 27). Aubert et al, Br J Dermatol., 2018 August; 179(2):442-456. Samples were collected for large-scale gene expression profiling. Subjects provided written informed consent prior to biopsies. Subjects with moderate inflammatory acne on the back at the screening visit, defined by scores of between 2 and 4 for the whole back, with at least one area scored at 2 and a maximum of three nodules using the ECLA (Acne Lesion Score Scale) scale, were included in the study. Each subject had at least 2 papules 48 hours old, one on each half of the back. Subjects were excluded if they had active skin disease or inflammation other than acne, underlying known conditions which could interfere with study results, history of allergy to local anesthetics and/or topical antiseptics, history of bleeding disorder, or pregnancy/lactation (females). Predefined washout periods were mandated for acne treatments, immunosuppressants, immunomodulators, systemic corticosteroids, and isotretinoin. Study personnel applied treatment to patients' backs with trifarotene cream (right side) or vehicle (left side) once daily for 28 days excluding weekends (n=19 applications). Biopsies of nonlesional areas of trifarotene- and vehicle-treated skin were made under local anaesthesia at day 27 as shown in FIG. 1. Biopsies were stored in RNAlater TissueProtect Tubes (Qiagen, Les Ulis, France). Bioinformatics Analysis: Data analysis was performed using Array Studio software (Omicsoft Corporation, Cary, NC, USA). Affymetrix U133 Plus 2.0 chips (GeneChipTM, Santa Clara, CA, USA) were normalized using the multi-array average (RMA) method (See […], et al. Exploration, normalization, and summaries of high density oligonucleotide array probe level data. Biostatistics, 2003; 4:249-64.) Low expression probe-sets were filtered. Only Affymetrix identifiers with expression ≥2^6 in at least 5 samples in one condition were selected for further statistical analysis, resulting in data for 36245 out of the 54675 probe-sets present on the HG U133 Plus 2.0 array. Mean expression levels were obtained by calculating the geometric means of the RMA-normalized data. A linear model was fitted to the normalized data, and statistical testing of the comparisons of interest were performed using a moderated t-test. Paired-test was used when applicable. P values were adjusted for multiple testing using the Benjamini-Hochberg false discovery rate (FDR) method (See e.g., Benjamini Y, et al., Controlling the false discovery rate in behavior genetics research. Behav Brain Res, 2001; 125:279-84). Candidate differentially expressed genes were selected using a combination of fold-change and […]; genes with absolute fold change>2 and FDA<0.05 were considered as candidate differentially expressed genes. […]

[3] = lesional skin after 0.005% cream (day 27) vs before treatment

With `CC(C)(C)c1cc(-c2cc(-c3ccc(C(=O)O)cc3)ccc2OCCO)ccc1N1CCCC1` [Trifarotene, 3″-tert-Butyl-4′-(2-hydroxy-ethoxy)-4″-pyrrolidin-1-yl-[1,1′,3′,1″ ]terphenyl-4-carboxylic acid] as the compound, how does the “gene set enrichment: inflammatory modules and tissue remodeling gene sets” value [1] read?
Its value is “downregulates”.

And the “number of genes upregulated among the 67 genes regulated” value ([2]; LINC01224, INA, GABRA4, PXMP4)?
The value was “four”.

What about the “number of genes uniquely downregulated (not in spontaneously resolving signature)” value ([2]; absolute fold change>2, genes of inflammatory cell infiltration and extracellular matrix reorganization) of the same compound?
Its value is 67 genes.

And the “number of genes in common between acne lesion profile and trifarotene-treated lesion profile, all reversed” value ([2]; acne signature vs trifarotene signature)?
The value was 354 genes.

What about the “Fold Change R3 vs L1: ADAM12 (226777_at)” value [2, 3] of the same compound?
Its value is −3.84.

And the “Fold Change R3 vs L1: ADAMDEC1 (206134_at)” value [2, 3]?
Its value is −6.29.

What about the “Fold Change R3 vs L1: APELA (1559280_a_at)” value [2, 3] of the same compound?
The value was −2.70.

And the “Fold Change R3 vs L1: ARHGAP9 (224451_x_at)” value [2, 3]?
The value was −2.14.

And the “Fold Change R3 vs L1: BCAT1 (214452_at)” value [2, 3]?
Its value is −3.66.

And the “Fold Change R3 vs L1: BIRC3 (210538_s_at)” value [2, 3]?
The value was −2.23.

And the “Fold Change R3 vs L1: CBLN2 (242301_at)” value [2, 3]?
Its value is −2.61.

What about the “Fold Change R3 vs L1: CCDC71L (229521_at)” value [2, 3] of the same compound?
Its value is −2.26.

And the “Fold Change R3 vs L1: CCNA1 (205899_at)” value [2, 3]?
Its value is −3.55.

What about the “Fold Change R3 vs L1: CD37 (204192_at)” value [2, 3] of the same compound?
The value was −2.13.

What about the “Fold Change R3 vs L1: CD69 (209795_at)” value [2, 3] of the same compound?
The value was −2.10.

What about the “Fold Change R3 vs L1: CD80 (1554519_at)” value [2, 3] of the same compound?
The value was −4.03.

And the “Fold Change R3 vs L1: CD84 (230391_at)” value [2, 3]?
Its value is −2.57.

And the “Fold Change R3 vs L1: CLEC4A (221724_s_at)” value [2, 3]?
Its value is −2.32.

What about the “Fold Change R3 vs L1: CTLA4 (236341_at)” value [2, 3] of the same compound?
The value was −2.54.

What about the “Fold Change R3 vs L1: CYTH4 (219183_s_at)” value [2, 3] of the same compound?
The value was −2.36.

And the “Fold Change R3 vs L1: DMXL2 (215761_at)” value [2, 3]?
Its value is −2.35.

What about the “Fold Change R3 vs L1: EVI2B (211742_s_at)” value [2, 3] of the same compound?
The value was −2.35.

And the “Fold Change R3 vs L1: FERMT3 (223303_at)” value [2, 3]?
The value was −2.12.

And the “Fold Change R3 vs L1: FNDC3B (229865_at)” value [2, 3]?
The value was −2.35.

And the “Fold Change R3 vs L1: GABRA4 (208463_at)” value [2, 3]?
The value was 2.26.

And the “Fold Change R3 vs L1: GASK1B (219872_at)” value [2, 3]?
The value was −2.30.

What about the “Fold Change R3 vs L1: GLIPR1 (204222_s_at)” value [2, 3] of the same compound?
The value was −2.48.

And the “Fold Change R3 vs L1: GLIPR2 (225604_s_at)” value [2, 3]?
Its value is −2.24.

What about the “Fold Change R3 vs L1: GLIS3 (229435_at)” value [2, 3] of the same compound?
Its value is −3.07.

What about the “Fold Change R3 vs L1: GPRIN3 (1556698_a_at)” value [2, 3] of the same compound?
Its value is −2.27.

What about the “Fold Change R3 vs L1: HLA-DPA1 (213537_at)” value [2, 3] of the same compound?
Its value is −2.14.

And the “Fold Change R3 vs L1: HP (206697_s_at)” value [2, 3]?
The value was −2.99.

And the “Fold Change R3 vs L1: IL2RG (204116_at)” value [2, 3]?
Its value is −2.28.

And the “Fold Change R3 vs L1: IL18BP (222868_s_at)” value [2, 3]?
The value was −2.37.

And the “Fold Change R3 vs L1: INA (204465_s_at)” value [2, 3]?
The value was 2.34.

What about the “Fold Change R3 vs L1: IRF8 (204057_at)” value [2, 3] of the same compound?
Its value is −2.02.

And the “Fold Change R3 vs L1: ITGAX (210184_at)” value [2, 3]?
The value was −2.85.

What about the “Fold Change R3 vs L1: KLHL6 (1555275_a_at)” value [2, 3] of the same compound?
The value was −3.05.

What about the “Fold Change R3 vs L1: LINC01224 (233142_at)” value [2, 3] of the same compound?
The value was 3.51.

What about the “Fold Change R3 vs L1: LOXL2 (202998_s_at)” value [2, 3] of the same compound?
Its value is −2.18.

And the “Fold Change R3 vs L1: LPXN (216250_s_at)” value [2, 3]?
Its value is −2.25.

And the “Fold Change R3 vs L1: LY86 (205859_at)” value [2, 3]?
Its value is −2.18.

And the “Fold Change R3 vs L1: MMP12 (204580_at)” value [2, 3]?
The value was −11.13.

And the “Fold Change R3 vs L1: MMP13 (205959_at)” value [2, 3]?
The value was −4.3.

And the “Fold Change R3 vs L1: MMP19 (204575_s_at)” value [2, 3]?
The value was −2.71.

And the “Fold Change R3 vs L1: MSR1 (214770_at)” value [2, 3]?
Its value is −2.45.

And the “Fold Change R3 vs L1: NCEH1 (225847_at)” value [2, 3]?
Its value is −2.70.

And the “Fold Change R3 vs L1: NRP2 (223510_at)” value [2, 3]?
Its value is −2.46.

What about the “Fold Change R3 vs L1: P2RY8 (229686_at)” value [2, 3] of the same compound?
Its value is −2.23.

What about the “Fold Change R3 vs L1: P2RY10 (236280_at)” value [2, 3] of the same compound?
Its value is −2.05.

And the “Fold Change R3 vs L1: PAPSS2 (203060_s_at)” value [2, 3]?
Its value is −2.60.

And the “Fold Change R3 vs L1: PARVG (223562_at)” value [2, 3]?
The value was −2.23.

And the “Fold Change R3 vs L1: PTHLH (211756_at)” value [2, 3]?
Its value is −2.55.

And the “Fold Change R3 vs L1: PTPN22 (236539_at)” value [2, 3]?
The value was −2.27.

What about the “Fold Change R3 vs L1: PTPRO (208121_s_at)” value [2, 3] of the same compound?
The value was −2.26.

What about the “Fold Change R3 vs L1: PXMP4 (238746_at)” value [2, 3] of the same compound?
The value was 2.14.

What about the “Fold Change R3 vs L1: RAC2 (207419_s_at)” value [2, 3] of the same compound?
The value was −2.03.

What about the “Fold Change R3 vs L1: RHOH (204951_at)” value [2, 3] of the same compound?
Its value is −2.57.

And the “Fold Change R3 vs L1: SELP (206049_at)” value [2, 3]?
The value was −2.10.

And the “Fold Change R3 vs L1: SELPLG (209879_at)” value [2, 3]?
The value was −2.06.

What about the “Fold Change R3 vs L1: SH2B3 (203320_at)” value [2, 3] of the same compound?
Its value is −2.26.

What about the “Fold Change R3 vs L1: SIRPB1 (206934_at)” value [2, 3] of the same compound?
The value was −2.45.

What about the “Fold Change R3 vs L1: SLAMF7 (219159_s_at)” value [2, 3] of the same compound?
Its value is −2.49.

And the “Fold Change R3 vs L1: SLC6A14 (219795_at)” value [2, 3]?
Its value is −2.04.

What about the “Fold Change R3 vs L1: SNAP25 (202508_s_at)” value [2, 3] of the same compound?
Its value is −2.40.

And the “Fold Change R3 vs L1: TRG-AS1 (239237_at)” value [2, 3]?
The value was −2.33.

What about the “Fold Change R3 vs L1: TYROBP (204122_at)” value [2, 3] of the same compound?
Its value is −2.39.

What about the “Fold Change R3 vs L1: VCAN (215646_s_at)” value [2, 3] of the same compound?
The value was −2.43.

And the “Fold Change R3 vs L1: XCL1 (206366_x_at)” value [2, 3]?
The value was −2.02.
